# Reference: patent US20240415819A1, “MACROCYCLIC COMPOUNDS AS PROTEASOME SUBUNIT BETA TYPE-5 INHIBITORS” (Lead Discovery Center GmbH, priority 2021, published 2024)
# Experiments:
# [1] = test system: A549 (human lung carcinoma cell line); experiment: Glo assay of A549 cells (Table 3; ProteasomeGlo plating scheme); format: cell-based; conditions: Homo sapiens; A549 cells; read-out: PGLo A549
# Method in brief: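 After acoustic compound transfer, plates incubate 105 min (37° C., 5% CO2). Proteasome-Glo reagent containing Suc-LLVY-Glo substrate is added, plates are shaken, then luminescence is measured after 10-15 min to derive IC50 [nM]. Staurosporine and DMSO serve as controls.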
# [2] = test system: Hs 746T (human gastric carcinoma cell line); experiment: 48 hr CTG viability assay, Hs 746T; format: cell-based; conditions: Hs746T, 48 hr CTG, read-out: Hs 746T IC50
# Method in brief: (§1)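 Growth inhibition by compound over 48 h; IC50 (nM) derived from duplicate CellTiter-Glo luminescence readings across 0.0015–10 uM.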
# [3] = test system: MM1 S (B lymphoblast cell line); experiment: 48 hr CTG viability assay, MM1S; format: cell-based; conditions: Homo sapiens, 48 hr CTG, read-out: MM1S IC50
# Method in brief: as §1
# [4] = test system: RPMI 8226 (B lymphocyte cell line, multiple myeloma); experiment: 48 hr CTG viability assay, RPMI 8226; format: cell-based; conditions: Homo sapiens, RPMI-8226; 48 hr CTG; read-out: RPMI-8226 IC50
# Method in brief: as §1
# [5] = target: T1, β5 subunit of the human constitutive proteasome (CPS) (Homo sapiens, UniProt P28074); experiment: β5 inhibition assay, human constitutive proteasome (Suc-LLVY-AMC); format: biochemical; conditions: IC50 class, Suc-LLVY-AMC substrate
# T1 construct: purchased Boston Biochem E-360
# Protocol: The enzymatic activity of the β5 subunit of the human constitutive proteasome (CPS) is analyzed. In another assay, which differs from the assay of the human constitutive proteasome only in using the human immunoproteasome (IPS) the enzymatic activity of the β5 subunit of the human immunoproteasome (IPS) is analyzed. […] Inhibition is indicated as IC50 [nM] (“-”=not measured).
# [6] = target: T2, β5 subunit of the human immunoproteasome (IPS) (Homo sapiens, UniProt P28062); experiment: β5 inhibition assay, human immunoproteasome (Suc-LLVY-AMC); format: biochemical; conditions: IC50 class, Suc-LLVY-AMC substrate
# T2 construct: purchased Boston Biochem E-370
# Method in brief: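 β5 activity is read as liberated AMC fluorescence (355/460 nm) after 4 h dark reaction at RT with 22.6 μM Suc-LLVY-AMC, stopped by 1 μM bortezomib. Beforehand, 1 nM human IPS and compound sat 10 min at RT in HEPES pH 7.5 buffer containing NaCl, 0.02% SDS and DTT.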
smiles,measurement,setting,value
"Cc1ccc2cc1CNC(=O)[C@H](CCc1ccccc1)NC(=O)[C@@H](NC(=O)CCOCCc1ccccc1)CC(=O)N1CCCC(CCO2)C1 (stereo partly drawn) [Compound 618, N-((9S,12S)-5^4-methyl-8,11,14-trioxo-9-phenethyl-4-oxa-7,10-diaza-1(3,1)-piperidina-5(1,3)-benzenacyclotetradecaphane-12-yl)-3-phenethoxypropanamide]",IC50,[1],< 0.1 µM
same,IC50,[2],< 0.1 µM
same,IC50,[3],< 0.1 µM
same,IC50,[4],< 0.1 µM
same,IC50,[5],< 0.1 µM
same,IC50,[6],< 0.1 µM
"Cc1ccc2cc1CNC(=O)[C@H](CCc1ccccc1)NC(=O)[C@@H](NC(=O)N1Cc3ccc(N)cc3C1)CC(=O)N1CCCC(CCO2)C1 (stereo partly drawn) [Compound 687, 5-amino-N-((9S,12S)-5^4-methyl-8,11,14-trioxo-9-phenethyl-4-oxa-7,10-diaza-1(3,1)-piperidina-5(1,3)-benzenacyclotetradecaphane-12-yl)isoindoline-2-carboxamide]",IC50,[1],< 0.1 µM
same,IC50,[2],< 0.1 µM
same,IC50,[3],< 0.1 µM
same,IC50,[4],< 0.1 µM
same,IC50,[5],< 0.1 µM
same,IC50,[6],< 0.1 µM
"Cc1ccc2cc1CNC(=O)[C@H](CCc1ccccc1)NC(=O)[C@@H](NC(=O)CCNCC1CCCC1)CC(=O)N1CCCC(CCO2)C1 (stereo partly drawn) [Compound 677, 3-((cyclopentylmethyl)amino)-N-((9S,12S)-5^4-methyl-8,11,14-trioxo-9-phenethyl-4-oxa-7,10-diaza-1(3,1)-piperidina-5(1,3)-benzenacyclotetradecaphane-12-yl)propanamide]",IC50,[1],0.1 to 0.5 µM
same,IC50,[2],< 0.1 µM
same,IC50,[3],< 0.1 µM
same,IC50,[4],< 0.1 µM
same,IC50,[5],< 0.1 µM
same,IC50,[6],< 0.1 µM
"Cc1ccc2cc1CNC(=O)[C@H](CCc1ccccc1)NC(=O)[C@@H](NC(=O)CCOc1ccccc1)CC(=O)N1CCCC(CCO2)C1 (stereo partly drawn) [Compound 591, N-((9S,12S)-5^4-methyl-8,11,14-trioxo-9-phenethyl-4-oxa-7,10-diaza-1(3,1)-piperidina-5(1,3)-benzenacyclotetradecaphane-12-yl)-3-phenoxypropanamide]",IC50,[1],< 0.1 µM
same,IC50,[2],< 0.1 µM
same,IC50,[3],< 0.1 µM
same,IC50,[4],< 0.1 µM
same,IC50,[5],< 0.1 µM
same,IC50,[6],< 0.1 µM
"COc1cccc(OCCC(=O)N[C@H]2CC(=O)N3CCCC(CCOc4ccc(C)c(c4)CNC(=O)[C@H](CCc4ccccc4)NC2=O)C3)c1 (stereo partly drawn) [Compound 587, 3-(3-methoxyphenoxy)-N-((9S,12S)-5^4-methyl-8,11,14-trioxo-9-phenethyl-4-oxa-7,10-diaza-1(3,1)-piperidina-5(1,3)-benzenacyclotetradecaphane-12-yl)propanamid]",IC50,[1],< 0.1 µM
same,IC50,[2],< 0.1 µM
same,IC50,[3],< 0.1 µM
same,IC50,[4],< 0.1 µM
same,IC50,[5],< 0.1 µM
same,IC50,[6],< 0.1 µM
"Cc1ccc2cc1CNC(=O)[C@H](CCc1ccccc1)NC(=O)[C@@H](NC(=O)CCN1CCC3(CCC3)CC1)CC(=O)N1CCCC(CCO2)C1 (stereo partly drawn) [Compound 638, N-((9S,12S)-5^4-methyl-8,11,14-trioxo-9-phenethyl-4-oxa-7,10-diaza-1(3,1)-piperidina-5(1,3)-benzenacyclotetradecaphane-12-yl)-3-(7-azaspiro[3.5]nonan-7-yl)propanamide]",IC50,[1],< 0.1 µM
same,IC50,[2],< 0.1 µM
same,IC50,[3],< 0.1 µM
same,IC50,[4],< 0.1 µM
same,IC50,[5],< 0.1 µM
same,IC50,[6],< 0.1 µM
"Cc1ccc2cc1CNC(=O)[C@H](CCc1ccccc1)NC(=O)[C@@H](NC(=O)CCN[C@@H]1C[C@H]3CC[C@@H]1C3)CC(=O)N1CCCC(CCO2)C1 [Compound 695, 3-(((1R,2R,4S)-bicyclo[2.2.1]heptan-2-yl)amino)-N-((9S,12S)-5^4-methyl-8,11,14-trioxo-9-phenethyl-4-oxa-7,10-diaza-1(3,1)-piperidina-5(1,3)-benzenacyclotetradecaphane-12-yl)propanamide]",IC50,[1],< 0.1 µM
same,IC50,[2],< 0.1 µM
same,IC50,[3],< 0.1 µM
same,IC50,[4],< 0.1 µM
same,IC50,[5],< 0.1 µM
same,IC50,[6],< 0.1 µM
"COc1ccc(CCCOCCC(=O)N[C@H]2CC(=O)N3CCCC(CCOc4ccc(C)c(c4)CNC(=O)[C@H](CCc4ccccc4)NC2=O)C3)cc1 (stereo partly drawn) [Compound 606, 3-(3-(4-methoxyphenyl)propoxy)-N-((9S,12S)-5^4-methyl-8,11,14-trioxo-9-phenethyl-4-oxa-7,10-diaza-1(3,1)-piperidina-5(1,3)-benzenacyclotetradecaphane-12-yl)propanamide]",IC50,[1],< 0.1 µM
same,IC50,[2],< 0.1 µM
same,IC50,[3],< 0.1 µM
same,IC50,[4],< 0.1 µM
same,IC50,[5],< 0.1 µM
same,IC50,[6],< 0.1 µM
"COCCOCCC(=O)N[C@H]1CC(=O)N2CCCC(CCOc3ccc(C)c(c3)CNC(=O)[C@H](CCc3ccccc3)NC1=O)C2 (stereo partly drawn) [Compound 596, 3-(2-methoxyethoxy)-N-((9S,12S)-5^4-methyl-8,11,14-trioxo-9-phenethyl-4-oxa-7,10-diaza-1(3,1)-piperidina-5(1,3)-benzenacyclotetradecaphane-12-yl)propanamide]",IC50,[1],< 0.1 µM
same,IC50,[2],< 0.1 µM
same,IC50,[3],< 0.1 µM
same,IC50,[4],< 0.1 µM
same,IC50,[5],< 0.1 µM
same,IC50,[6],< 0.1 µM
"Cc1ccc2cc1CNC(=O)[C@H](CCc1ccccc1)NC(=O)[C@@H](NC(=O)N1CC(O)C1)CC(=O)N1CCCC(CCO2)C1 (stereo partly drawn) [Compound 691, 3-hydroxy-N-((9S,12S)-5^4-methyl-8,11,14-trioxo-9-phenethyl-4-oxa-7,10-diaza-1(3,1)-piperidina-5(1,3)-benzenacyclotetradecaphane-12-yl)azetidine-1-carboxamide]",IC50,[1],< 0.1 µM
same,IC50,[2],< 0.1 µM
same,IC50,[3],< 0.1 µM
same,IC50,[4],< 0.1 µM
same,IC50,[5],< 0.1 µM
same,IC50,[6],< 0.1 µM
"Cc1ccc2cc1CNC(=O)[C@H](CCc1ccccc1)NC(=O)[C@@H](NC1CC3C=CC1C3)CC(=O)N1CCCC(CCO2)C1 (stereo partly drawn) [Compound 711, (9S,12S)-12-(bicyclo[2.2.1]hept-5-en-2-ylamino)-5^4-methyl-9-phenethyl-4-oxa-7,10-diaza-1(3,1)-piperidina-5(1,3)-benzenacyclotetradecaphane-8,11,14-trione]",IC50,[1],0.1 to 0.5 µM
same,IC50,[2],0.1 to 0.5 µM
same,IC50,[3],< 0.1 µM
same,IC50,[4],< 0.1 µM
same,IC50,[5],< 0.1 µM
same,IC50,[6],< 0.1 µM
"Cc1ccc2cc1CNC(=O)[C@H](CCc1ccccc1)NC(=O)[C@@H](NC(=O)CCOCC1CC3(CCC3)C1)CC(=O)N1CCCC(CCO2)C1 (stereo partly drawn) [Compound 615, N-((9S,12S)-5^4-methyl-8,11,14-trioxo-9-phenethyl-4-oxa-7,10-diaza-1(3,1)-piperidina-5(1,3)-benzenacyclotetradecaphane-12-yl)-3-(spiro[3.3]heptan-2-ylmethoxy)propanamide]",IC50,[1],< 0.1 µM
same,IC50,[2],< 0.1 µM
same,IC50,[3],< 0.1 µM
same,IC50,[4],< 0.1 µM
same,IC50,[5],< 0.1 µM
same,IC50,[6],< 0.1 µM
"Cc1ccc2cc1CNC(=O)[C@H](CCc1ccccc1)NC(=O)[C@@H](NC(=O)CCN1CCC3(CCCCC3)CC1)CC(=O)N1CCCC(CCO2)C1 (stereo partly drawn) [Compound 608, N-((9S,12S)-5^4-methyl-8,11,14-trioxo-9-phenethyl-4-oxa-7,10-diaza-1(3,1)-piperidina-5(1,3)-benzenacyclotetradecaphane-12-yl)-3-(3-azaspiro[5.5]undecan-3-yl)propanamide]",IC50,[1],< 0.1 µM
same,IC50,[2],< 0.1 µM
same,IC50,[3],< 0.1 µM
same,IC50,[4],< 0.1 µM
same,IC50,[5],< 0.1 µM
same,IC50,[6],< 0.1 µM
"Cc1ccc2cc1CNC(=O)[C@H](CCc1ccccc1)NC(=O)[C@@H](NC(=O)CN1CCC1)CC(=O)N1CCCC(CCO2)C1 (stereo partly drawn) [Compound 663, 2-(azetidin-1-yl)-N-((9S,12S)-5^4-methyl-8,11,14-trioxo-9-phenethyl-4-oxa-7,10-diaza-1(3,1)-piperidina-5(1,3)-benzenacyclotetradecaphane-12-yl)acetamide]",IC50,[1],< 0.1 µM
same,IC50,[2],< 0.1 µM
same,IC50,[3],< 0.1 µM
same,IC50,[4],< 0.1 µM
same,IC50,[5],< 0.1 µM
same,IC50,[6],< 0.1 µM
"Cc1ccc2cc1CNC(=O)[C@H](CCc1ccccc1)NC(=O)[C@@H](NC(=O)CCN1CCC3(COC3)C1)CC(=O)N1CCCC(CCO2)C1 (stereo partly drawn) [Compound 648, N-((9S,12S)-5^4-methyl-8,11,14-trioxo-9-phenethyl-4-oxa-7,10-diaza-1(3,1)-piperidina-5(1,3)-benzenacyclotetradecaphane-12-yl)-3-(2-oxa-6-azaspiro[3.4]octan-6-yl)propanamide]",IC50,[1],< 0.1 µM
same,IC50,[2],< 0.1 µM
same,IC50,[3],< 0.1 µM
same,IC50,[4],< 0.1 µM
same,IC50,[5],< 0.1 µM
same,IC50,[6],< 0.1 µM
"Cc1ccc2cc1CNC(=O)[C@H](CCc1ccccc1)NC(=O)[C@@H](NC(=O)CCNC1CC1)CC(=O)N1CCCC(CCO2)C1 (stereo partly drawn) [Compound 649, 3-(cyclopropylamino)-N-((9S,12S)-5^4-methyl-8,11,14-trioxo-9-phenethyl-4-oxa-7,10-diaza-1(3,1)-piperidina-5(1,3)-benzenacyclotetradecaphane-12-yl)propanamide]",IC50,[1],< 0.1 µM
same,IC50,[2],< 0.1 µM
same,IC50,[3],< 0.1 µM
same,IC50,[4],< 0.1 µM
same,IC50,[5],< 0.1 µM
same,IC50,[6],< 0.1 µM
